# Where two headings read alike, the source gives them in different places.
# Assays:
# Staphylococcus aureus = assay: Susceptibility testing (MIC, modified NCCLS method); type: cell-based; settings: for MIC: Staphylococcus aureus
# How it was run: (§1)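 Growth inhibition was scored by optical density increase at 600 nm. Bacteria in broth were added at roughly 1-1.5×10^6 cells/ml to 20 twofold serial dilutions of compound, prepared from water or DMSO stocks. The NCCLS MIC procedure was modified for high throughput.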
# E. faecalis = assay: as above; type: cell-based, Enterococcus faecalis; settings: E. faecalis (7)
# How it was run: as §1
# E. cloacae = assay: as above; type: cell-based, Enterobacter cloacae; settings: E. cloacae (1)
# How it was run: as §1
# K. pneumoniae = assay: as above; type: cell-based, Klebsiella pneumoniae; settings: K. pneumoniae (5)
# How it was run: as §1
# P. aeruginosa = assay: as above; type: cell-based, Pseudomonas aeruginosa
# How it was run: as §1
# S. epidermidis = assay: as above; type: cell-based, Staphylococcus epidermidis
# How it was run: as §1
# S. pneumoniae = assay: as above; type: cell-based, Streptococcus pneumoniae; settings: S. pneumoniae (3)
# Description: (§2) The NCCLS (National Committee for Clinical Laboratory Standards) method to determine MIC's of antimicrobial compounds was modified for high-throughput screening. All stocks of tested compounds were prepared in either water or in dimethylsulfoxide (DMSO), depending on the solubility. […] Briefly 20 2-fold serial dilutions of testing compounds from the highest concentration were made in a 384-well microtiter plate. Each well was inoculated with testing bacteria in broth to a final concentration of approximately 1-1.5×10^6 cells/ml. Bacterial growth was determined by the increase of optical density at 600 nm using a microplate reader (Tecan SpectraFluor Plus).
# [1] = system: Vancomycin-resistant E. faecalis or E. faecium; assay: as above; type: cell-based, Enterococcus faecalis, Enterococcus faecium; settings: VRE (5)
# Description: as §2
# M. catarrhalis = assay: as above; type: cell-based, Moraxella catarrhalis; settings: M. catarrhalis (4)
# Description: as §2
# Gram-negative species = assay: MIC comparison with reference antibiotics, Gram-negative species; type: cell-based
# Description: as §2
# E coli R(Tem1) = assay: Inhibition of bacterial growth (IC50, OD600); type: cell-based; settings: for IC50 ratio N/R: N versus R (Tem1); for IC50: Escherichia coli
# Description: (§3) Compounds of the invention were tested for their ability to inhibit the growth of β-lactam sensitive and resistant bacteria by contacting samples of such cells with various dilutions of the compositions, incubating the cells at 37° C. in the presence of these compositions and then measuring the number of viable cells present in each sample.
# (§4) Two compounds of the invention were tested, Compound (9) and Compound (1l). Incubation of bacterial cells was performed for two time periods, 10 hours and 20 hours. Four E. coli strains were used for the test. These strains were all derived from the strain NovaBlue (NovaGen Inc., Madison, Wis.). E. coli N is a normal, β-lactam sensitive strain. E coli R(Tem1) is a β-lactam resistant strain with a β-lactamase gene on a plasmid. E. coli C(Tem4O-15) is a β-lactam resistant strain with a β-lactam inhibitor resistant β-lactamase gene, and E. coli C(Tem3 1-27) is β-lactam resistant strain with an alternative β-lactam inhibitor resistant β-lactamase gene.
# (§5) The various E. coli strains were each treated with dilutions of the compounds of the invention. […] The number of viable cells at each time point was determined by measuring the OD600 of each cell sample.
# (§6) After measuring the number of viable cells present, the IC50 for each sample was determined. […] In addition, both compounds were effective at inhibiting the growth of both antibiotic sensitive and resistant bacterial cells.
# E. coli C(Tem3 1-27) = assay: Inhibition of bacterial growth (IC50, OD600); type: cell-based; settings: for IC50: Escherichia coli
# Description: as §3, §4, §5, §6
# E. coli C(Tem4O-15) = assay: Inhibition of bacterial growth (IC50, OD600); type: cell-based; settings: for IC50: Escherichia coli
# Description: as §3, §4, §5, §6
# E. coli N = assay: Inhibition of bacterial growth (IC50, OD600); type: cell-based; settings: Escherichia coli
# Description: as §3, §4, §5, §6
# TEM-1 β-lactamase = target: T1, TEM-1 β-lactamase (Escherichia coli, UniProt P62593); type: biochemical; settings: 20 minutes, […] TEM-1, 4 μM solution of Compound (9)
# T1 construct: His tag (N); made in house; host or cells: Escherichia coli BL21(DE3)
# Description: Assays were conducted at 37° C. in 100 mM potassium phosphate buffer pH 7.2 with 1 mM EDTA and 0.5 μg/ml TEM-1 β-lactamase. […] Hydrolysis product (triclosan) was separated from Compound (9) by use of an HP1100 series HPLC equipped with an Alltech Adsorbosphere HS(C18)5u 150 mm×4.6 mm column. The mobile phase was isocratic containing 55% acetonitrile and 0.1% TFA producing retention times of 20.4 minutes and 24.1 minutes for triclosan and Compound (9), respectively. Quantitation of triclosan was based on the A260 integrated peak area as compared to triclosan standards.
# A typical TEM-1 β-lactamase assay is conducted at 37° C. in 1.4 ml of 100 mM potassium phosphate pH 7.2, 1 mM; ethylenediamine tetraacetic acid (EDTA) and 25 nM TEM-1 β-lactamase. A test compound is assayed at several concentrations, for example at 5 and 20 μM. […] Substrates and products are separated and quantitated via HPLC (described below). […]
# Kinetic parameters of test compounds (kcat and Km) are determined from a simultaneous progress curve analysis of substrate consumption and product formation (when both are observable) as fit to the equations: […]
# Hydrolysis product (triclosan) was separated from Compound (9) by use of an HP1100 series HPLC equipped with an Alltech Adsorbosphere HS(C18)5μ150 mm×4.6 mm column. […] Quantitation of triclosan was based on the A260 integrated peak area as compared to triclosan standards.
# [2] = system: S. aureus clinical isolates; assay: MIC by agar dilution, recent clinical isolates (UCSD Medical Center); type: cell-based, Staphylococcus aureus; settings: MRSA (17)
# [3] = E. aerogenes, E. cloacae and K. pneumoniae
# T1 sequence (P62593 24-286 limits assumed): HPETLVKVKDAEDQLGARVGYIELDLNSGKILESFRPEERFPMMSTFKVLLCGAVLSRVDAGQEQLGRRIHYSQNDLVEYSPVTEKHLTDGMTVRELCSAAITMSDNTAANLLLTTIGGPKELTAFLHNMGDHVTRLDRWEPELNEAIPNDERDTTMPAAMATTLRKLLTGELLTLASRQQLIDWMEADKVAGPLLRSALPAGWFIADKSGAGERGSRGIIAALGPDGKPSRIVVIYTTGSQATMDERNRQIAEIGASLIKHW
structure (smiles),measurement,setting,value
"O=C(Cc1cccs1)N[C@@H]1C(=O)N2C(C(=O)O)=C(COc3cc(Cl)ccc3Oc3ccc(Cl)cc3Cl)CS[C@H]12 [Compound 9, 3-(2-(2,4-Dichlorophenoxy)-5-chlorophenoxy)methyl-7-(2-thienylacetamido)-3-cephem-4-carboxylic acid]",fold greater potency than vancomycin,Staphylococcus aureus; MRSA and vancomycin-resistant S. aureus,at least 85 fold
same,Geometric mean of MIC,"Staphylococcus aureus; S. aureus β-lactamase negative (2), listed as Comp. 9",1410 ng/mL
same,MIC,"Staphylococcus aureus; ATCC11632, ATCC 11632, methicillin-sensitive, β-lactamase Neg./Pos., read-out: MIC",0.015 ng/mL
same,MIC,"Staphylococcus aureus; ATCC13301, ATCC 13301, methicillin-sensitive, β-lactamase Positive, read-out: MIC",0.015 ng/mL
same,MIC,"Staphylococcus aureus; ATCC14154, ATCC 14154, methicillin-sensitive, β-lactamase Positive, read-out: MIC",0.015 ng/mL
same,MIC,"Staphylococcus aureus; ATCC33591, ATCC 33591, methicillin-resistant, β-lactamase Positive, read-out: MIC",0.03 ng/mL
same,MIC,"Staphylococcus aureus; ATCC33592, ATCC 33592, methicillin-sensitive, β-lactamase Positive, read-out: MIC",0.015 ng/mL
same,MIC,"Staphylococcus aureus; ATCC33593, ATCC 33593, methicillin-resistant, β-lactamase Positive, read-out: MIC",0.015 ng/mL
same,MIC,"Staphylococcus aureus; ATCC33594, ATCC 33594, methicillin-sensitive, β-lactamase Positive, read-out: MIC",0.015 ng/mL
same,MIC,"Staphylococcus aureus; ATCC43300, ATCC 43300, methicillin-sensitive, β-lactamase Neg./Pos., read-out: MIC",0.06 ng/mL
same,MIC,"Staphylococcus aureus; ATCC700260, ATCC 700260, methicillin-sensitive, β-lactamase Positive, read-out: MIC",0.015 ng/mL
same,MIC,"Staphylococcus aureus; ATCC700698, ATCC 700698, methicillin-resistant, β-lactamase Negative, read-out: MIC",1000 ng/mL
same,MIC,"Staphylococcus aureus; ATCC700699, ATCC 700699, methicillin-resistant, β-lactamase Negative, read-out: MIC",2000 ng/mL
same,MIC,"Staphylococcus aureus; ATCC700787, ATCC 700787, methicillin-resistant, β-lactamase Positive, read-out: MIC",1000 ng/mL
same,MIC,"Staphylococcus aureus; ATCC700788, ATCC 700788, methicillin-resistant, β-lactamase Positive, read-out: MIC",250 ng/mL
same,MIC,"Staphylococcus aureus; ATCC700789, ATCC 700789, methicillin-resistant, β-lactamase Positive, read-out: MIC",31 ng/mL
same,MIC,"Staphylococcus aureus; MRSA, MRSA tested (7), read-out: Geometric mean of MIC",25 ng/mL
same,MIC,"Staphylococcus aureus; MSSA, MSSA tested (7), read-out: Geometric mean of MIC",0.018 ng/mL
same,MIC,"Staphylococcus aureus; S. aureus (14), read-out: Geometric mean of MIC",1 ng/mL
same,MIC,"Staphylococcus aureus; S. aureus β-lactamase negative (2), read-out: Geometric mean of MIC",1570 ng/mL
same,MIC,"Staphylococcus aureus; S. aureus β-lactamase positive (12), read-out: Geometric mean of MIC",0.19 ng/mL
same,MIC range,E. faecalis,8000 to 16000 ng/mL
same,MIC,"E. faecalis; Enterococcus faecalis, read-out: GM* MIC (geometric mean)",8000 ng/mL
same,MIC range,E. cloacae,1000 ng/mL
same,MIC,"E. cloacae; Enterobacter cloacae, read-out: GM* MIC (geometric mean)",1000 ng/mL
same,MIC range,K. pneumoniae,980 to 3910 ng/mL
same,MIC,"K. pneumoniae; Klebsiella pneumoniae, read-out: GM* MIC (geometric mean)",1960 ng/mL
same,activity against P. aeruginosa,P. aeruginosa,no activity
same,MIC range,P. aeruginosa; P. aeruginosa (7),>15600 ng/mL
same,MIC,"P. aeruginosa; Pseudomonas aeruginosa, P. aeruginosa (7), read-out: GM* MIC (geometric mean)",> 15600 ng/mL
same,MIC range,S. epidermidis; S. epidermidis (5),0.015 to 500 ng/mL
same,GM* MIC (geometric mean),"S. epidermidis; S. epidermidis (5), listed as Comp. (9)",<4 ng/mL
same,fold more active than vancomycin,"S. epidermidis; S. epidermidis, geometric mean MIC",435 fold
same,MIC,"S. epidermidis; Staphylococcus epidermidis, S. epidermidis (5), read-out: GM* MIC (geometric mean)",4 ng/mL
same,MIC range,S. pneumoniae,60 to 500 ng/mL
same,MIC,"S. pneumoniae; Streptococcus pneumoniae, read-out: GM* MIC (geometric mean)",122 ng/mL
same,MIC,"[1]; Enterococcus, read-out: GM* MIC (geometric mean)",10300 ng/mL
same,MIC range,[1],8000 to 16000 ng/mL
same,MIC range,M. catarrhalis,0.015 to 31 ng/mL
same,MIC,"M. catarrhalis; Moraxella catarrhalis, read-out: GM* MIC (geometric mean)",0.18 ng/mL
same,fold less active than imipenem,Gram-negative species; [3],4 fold
same,fold more active than cephalothin or ampicillin,Gram-negative species; [3],at least 33 fold
same,fold stronger than ampicillin and cephalothin,"Gram-negative species; M. catarrhalis and H. influenzae, geometric mean MIC",at least 1000 fold
same,IC50 ratio N/R,E coli R(Tem1); 10 hours,N/R = 1969x
same,IC50 ratio N/R,E coli R(Tem1); 20 hours,N/R = 10x
same,IC50,"E coli R(Tem1); 10 h, read-out: IC50 10 hours, Cell R (Tem1), 10 hours",0.096 nM
same,IC50,"E coli R(Tem1); 20 h, read-out: IC50 20 hours, Cell R (Tem1), 20 hours",4.13 nM
same,IC50 ratio (C/R or N/C),"E. coli C(Tem3 1-27); 10 hours, line of C (Tem31-27)",C/R = 90x
same,IC50 ratio (given C/R or N/R),"E. coli C(Tem3 1-27); 20 hours, line of C (Tem31-27)",C/R = 2x
same,IC50,"E. coli C(Tem3 1-27); 10 h, read-out: IC50 10 hours",2.09 nM
same,IC50,"E. coli C(Tem3 1-27); 20 h, read-out: IC50 20 hours",21 nM
same,IC50 ratio (C/R or N/C),"E. coli C(Tem4O-15); 10 hours, line of C (Tem40-15)",C/R = 117x
same,IC50 ratio (given C/R or N/R),"E. coli C(Tem4O-15); 20 hours, line of C (Tem40-15)",C/R = 2.3x
same,IC50,"E. coli C(Tem4O-15); 10 h, read-out: IC50 10 hours",1.62 nM
same,IC50,"E. coli C(Tem4O-15); 20 h, read-out: IC50 20 hours",18.3 nM
same,IC50,"E. coli N; 10 h, read-out: IC50 10 hours, Cell N, 10 hours, 37° C.",189 nM
same,IC50,"E. coli N; 20 h, read-out: IC50 20 hours, Cell N, 20 hours",42.4 nM
same,converted to triclosan,TEM-1 β-lactamase,~90%
same,MIC range,[2],80 to 600 ng/mL
same,MIC50,[2]; Staphylococcus aureus,80 ng/mL
same,MIC90,[2]; Staphylococcus aureus,300 ng/mL

# From patent US20020115642A1, “Beta-lactam antibiotics” (priority 2000, published 2002)
